{
  "source": "patent US20250314656A1",
  "about": "“GENETICALLY ENCODED FLUORESCENT INDICATOR OF D-2-HYDROXYGLUTARATE” (priority 2024, published 2025)",
  "key": {"[1]": {"target": "D2HGlo (Variant 2, SEQ ID NO: 4; Variant 2 truncated DhdR SEQ ID NO: 2, two residues removed from each terminus, between ECFP and cpVenus173) (Achromobacter denitrificans, UniProt A0ABZ3FXY3)", "format": "binding, Achromobacter denitrificans NBRC 15125", "conditions": "concentrations up to 100 μM"}, "[2]": {"conditions": "several freeze-thaw cycles or exposure to excess heat; cited from earlier work"}, "[3]": {"system": "IDH1 wildtype U87MG cells", "experiment": "FRET imaging of D2HGlo in IDH1 wildtype U87MG cells", "format": "cell-based, human", "conditions": "Compound 968 1 μM, approx. 5.5 minutes", "method": ". […] . This evidence further supports the specificity of D2HGlo to endogenous D-2-HG in situ. […] . […] .\nThe inventors utilized the glutaminase C inhibitor Compound 968 and 2-Deoxy-D-glucose (2-DG), an inhibitor of glycolysis. […] . Cell Culture and Transfection. […] Cells were transfected 24 hours after plating with 1.0 μg D2HGlo constructs and 3.0 μL Trans-IT®-LT1 transfection reagent (Mirus Bio, Madison, WI). The cells were allowed to express for 48 hours before imaging.\nFluorescence Live-Cell Imaging. […] The standard imaging parametersD2HGlo sensors were: 457 excited at 458 nm laser line and 482 nm and 531 nm and the fluorescent signal was collected using a BA 480-495 emission filter (ECFP) and a BA 535-565 emission filter (FRET). The FRET ratio was determined by dividing the FRET signal by the ECFP signal. […] . The maximum FRET ratio was determined for the entire time-course and normalized to the baseline FRET ratio. […] A region of interest was drawn on each cell, and the average FRET ratio within each ROI was determined. In some sets of experiments, cells were treated with AG-120 (3 μM) for 48 hours prior to FRET ratio collection. Alternatively, glutaminase inhibitor (1 μM), or 2-DG (10 mM) were added to imaging wells after collecting baseline FRET values for 30 seconds."}, "[4]": {"system": "IDH1 wildtype U87MG cells", "experiment": "D-2-HG concentration in cell culture supernatant measured with purified D2HGlo, wildtype cells", "format": "cell-based, human", "method": "(§1) Statistical analysis was performed using a one-way ANOVA test with post hoc Tukey (**, P<0.01; *, P<0.05). […] Statistical analysis was performed using a one-way ANOVA test with post hoc Tukey (*, P<0.05);\nBoth cell lines were left untreated or exposed to AG-120 (3 μM) for 48 hours prior to measurements. (B) Titration of purified D2HGlo with increasing concentrations of D-2-HG (100 nM-1 mM) spiked into human serum. […] (D) Titration of purified D2HGlo with increasing concentrations of D-2-HG (100 nM-1 mM) spiked into human urine. […] (F) Titration of purified D2HGlo with increasing concentrations of D-2-HG (100 nM-1 mM) spiked into aCSF.\nCell Culture Supernatant: U87MG IDH1 wildtype and mutant cells were plated at 60% confluence in 6-well plates. For some experiments, AG-120 in DMSO (3 μM), Glutaminase inhibitor (1 μM), or 2-DG (10 mM) was added to the cell culture media before plating the cells. For all conditions and cell lines, the cell culture supernatant was collected after 48 hours of incubation at 37° C. 10 μL of cell culture media was mixed with 90 μL of purified D2HGlo (5 μM), and the FRET ratios were collected. D-2-HG levels were estimated by using the titration curve as a calibration curve and converting the FRET ratios of unknowns into concentrations. Biological Fluids: Urine and serum were collected from three healthy donors while aCSF was purchased (Tocris Bioscience)."}, "[5]": {"system": "IDH1 wildtype U87MG cells", "experiment": "Live-cell D2HGlo FRET ratio after inhibitor treatment, wildtype cells", "format": "cell-based, human", "method": "(A) Left: Representative image of a wild-type IDH1 U87MG cell expressing Cyto-D2HGlo. Scale bar is 25 μm. […] (B) Left: Representative image of a wild-type IDH1 U87 clel cell expressing Nuc-D2HGlo. Scale bar is 25 μm. […] (C) Left: Representative image of a wild-type IDH1 U87 cell expressing Mito-D2HGlo. Scale bar is 25 μm.\nas §1\nFluorescence Live-Cell Imaging."}, "[6]": {"system": "2-HG", "conditions": "newly diagnosed and advanced cancer; cited from earlier work"}},
  "note": "Read-outs that look alike come from different tables or passages of the source.",
  "data": [
    {"smiles": "O=C(O)CC(O)(CC(=O)O)C(=O)O", "note": "[Citrate]", "values": [
      {"measurement": "response of D2HGlo (FRET ratio) to metabolite", "setting": "[1]", "result": "does not respond"}
    ]},
    {"smiles": "O=C(O)CC[C@@H](O)C(=O)O", "note": "[Variant D-2-HG, D-2-hydroxyglutarate]", "values": [
      {"measurement": "stability in biological fluids", "setting": "[2]", "result": "remains stable"}
    ]},
    {"smiles": "O=C(O)CCC(=O)O", "note": "[Succinate, succinic acid]", "values": [
      {"measurement": "response of D2HGlo (FRET ratio) to metabolite", "setting": "[1]", "result": "does not respond"}
    ]},
    {"smiles": "CN(C)c1ccc(C2Nc3ccc4ccccc4c3C3=C2C(=O)CC(C)(C)C3)cc1Br", "note": "(stereo not shown) [Compound 968]", "values": [
      {"measurement": "acute change of FRET ratio (Cyto-D2HGlo)", "setting": "[3]", "result": "did not elicit any changes in FRET ratio"},
      {"measurement": "D-2-HG accumulation in supernatant", "setting": "[4]; Compound 968 1 μM for 48 hours", "result": "nor did it affect D-2-HG accumulation in cell culture supernatants"}
    ]},
    {"smiles": "O=C(O)CC(O)C(=O)O", "note": "(racemic) [Malate, sodium hydrogen DL-malate]", "values": [
      {"measurement": "response of D2HGlo (FRET ratio) to metabolite", "setting": "[1]", "result": "does not respond"}
    ]},
    {"smiles": "O=C(O)CCC(=O)C(=O)O", "note": "[α-ketoglutarate, α-ketoglutaric acid]", "values": [
      {"measurement": "response of D2HGlo (FRET ratio) to metabolite", "setting": "[1]", "result": "does not respond"}
    ]},
    {"smiles": "C[C@H](O)C(=O)O", "note": "[Lactate, sodium L-lactate]", "values": [
      {"measurement": "response of D2HGlo (FRET ratio) to metabolite", "setting": "[1]", "result": "does not respond"},
      {"measurement": "response of D2HGlo (FRET ratio) to metabolite", "setting": "[1]; listed as lactate", "result": "did not respond"}
    ]},
    {"smiles": "O=CC[C@@H](O)[C@H](O)[C@H](O)CO", "note": "[Variant 2-DG, 2-Deoxy-D-glucose]", "values": [
      {"measurement": "acute change of Cyto-D2HGlo FRET ratio", "setting": "[5]; 2-DG 10 mM, approximately 5.5 minutes", "result": "unaffected"}
    ]},
    {"smiles": "O=C(O)CC(=O)C(=O)O", "note": "[Oxaloacetate, Oxaloacetic acid]", "values": [
      {"measurement": "response of D2HGlo (FRET ratio) to metabolite", "setting": "[1]", "result": "does not respond"}
    ]},
    {"smiles": "N[C@@H](CCC(=O)O)C(=O)O", "note": "[Glutamate, L-glutamic acid]", "values": [
      {"measurement": "response of D2HGlo (FRET ratio) to metabolite", "setting": "[1]", "result": "does not respond"},
      {"measurement": "response of D2HGlo (FRET ratio) to metabolite", "setting": "[1]; listed as glutamate", "result": "did not respond"}
    ]},
    {"smiles": "N#Cc1ccnc(N2C(=O)CC[C@H]2C(=O)N(c2cncc(F)c2)[C@H](C(=O)NC2CC(F)(F)C2)c2ccccc2Cl)c1", "note": "[AG-120]", "values": [
      {"measurement": "effect on 2-HG levels in patients", "setting": "[6]", "result": "reduction of 2-HG to levels similar to those seen in healthy populations"},
      {"measurement": "D-2-HG concentration in supernatant", "setting": "[4]; AG-120 3 μM for 48 hours", "result": "2.79 ± 0.41", "unit": "µM"},
      {"measurement": "effect on D-2-HG levels", "setting": "[5]; AG-120 3 μM for 48 hours", "result": "had no effect on D-2-HG levels"}
    ]}
  ]
}
